Test results reported in US12559474B2, “Triazine derivatives having virus replication inhibitory activity and pharmaceutical composition comprising the same” (priority 2021, dated 2026).
Where two headings read alike, the source gives them in different places.

Legend:
SARS-CoV-2 = assay: microbe, parasite or virus in culture; assay type: cell-based; conditions: Severe acute respiratory syndrome coronavirus 2, VeroE6/TMPRSS2, 72 h, 50% SARS-CoV-2 infected cell death inhibitory concentration, VeroE6/TMPRSS2 cells, 3 days culture
SARS-CoV-2 3CL protease = SARS-CoV-2 3CL protease (Severe acute respiratory syndrome coronavirus 2, UniProt P0DTD1); assay: biochemical; conditions: 50% SARS-CoV-2 3CL protease inhibitory concentration, read-out: IC50

Structure (SMILES) | EC50 (SARS-CoV-2; class symbols) [nM] | IC50 (SARS-CoV-2 3CL protease; given as class symbols) [nM] | EC50 (SARS-CoV-2; CellTiter-Glo 2.0) [nM] | IC50 (SARS-CoV-2 3CL protease; RapidFire MS) [nM]
COc1ccc(Nc2nc(=O)n(Cc3ccc[nH]c3=O)c(=O)n2Cc2cc(F)c(F)c(F)c2F)cc1 [Compound I-0256] | 1000 to 10000 | < 100 |  | 
COc1ccc(Nc2nc(=O)n(Cc3cc(-c4ncco4)c[nH]c3=O)c(=O)n2Cc2cc(F)c(F)c(F)c2)cc1 [Compound I-0260] | 1000 to 10000 | < 100 |  | 
Cc1nc2cc(Cl)c(Nc3nc(=O)n(Cc4ccc[nH]c4=O)c(=O)n3Cc3cc(F)c(F)c(Cl)c3)cc2n1C [Compound I-0264] | 1000 to 10000 | < 100 |  | 
Cn1cc2cc(Nc3nc(=O)n(Cc4ccc[nH]c4=O)c(=O)n3Cc3ccc(F)c(C#N)c3)c(Cl)cc2n1 [Compound I-0267] | 1000 to 10000 | < 100 |  | 
N#Cc1cc(Cn2c(Nc3cc4c(cc3Cl)OCC4)nc(=O)n(Cc3cc(F)c[nH]c3=O)c2=O)ccc1F [Compound I-0271] | 1000 to 10000 | < 100 |  | 
O=c1[nH]cc(F)cc1Cn1c(=O)nc(Nc2cc3c(cc2Cl)OCC3)n(Cc2cc(F)c(F)c(F)c2)c1=O [Compound I-0272] | < 1000 | < 100 |  | 
O=c1[nH]cccc1Cn1c(=O)nc(Nc2cc3cccnc3cc2Cl)n(Cc2cc(F)c(F)c(F)c2)c1=O [Compound I-0279] | 1000 to 10000 | < 100 |  | 
O=c1[nH]cccc1Cn1c(=O)nc(Nc2cc3cn(CCO)nc3cc2Cl)n(Cc2cc(F)c(F)c(F)c2)c1=O [Compound I-0281] |  |  | 4180 | 3.8
O=c1[nH]cccc1Cn1c(=O)nc(Nc2cc3cn(CC(F)F)nc3cc2Cl)n(Cc2cc(F)c(F)c(F)c2)c1=O [Compound I-0284] | < 1000 | < 100 |  | 
COCCn1cc2cc(Nc3nc(=O)n(Cc4ccc[nH]c4=O)c(=O)n3Cc3cc(F)c(F)c(F)c3)c(Cl)cc2n1 [Compound I-0285] | 1000 to 10000 | < 100 |  | 
CCCCn1cc2cc(Nc3nc(=O)n(Cc4ccc[nH]c4=O)c(=O)n3Cc3cc(F)c(F)c(F)c3)c(Cl)cc2n1 [Compound I-0286] | 1000 to 10000 | < 100 |  | 
O=c1nc(Nc2cc3cn(CCO)nc3cc2Cl)n(Cc2cc(F)c(F)c(F)c2)c(=O)n1-c1cncc2ccccc12 [Compound I-0288] |  |  | 747 | 5.8
C[C@@H](O)Cn1cc2cc(Nc3nc(=O)n(Cc4cc(Cl)c[nH]c4=O)c(=O)n3Cc3cc(F)c(F)c(F)c3)c(Cl)cc2n1 [Compound I-0290] | 1000 to 10000 | < 100 |  | 
COc1ccc(Nc2nc(=O)n(Cc3cc4ccccc4[nH]c3=O)c(=O)n2Cc2cc(F)c(F)c(F)c2)cc1 [Compound I-0306] | 1000 to 10000 | < 100 |  | 
COc1ccc(Nc2nc(=O)n(Cc3cc(C(F)(F)F)c[nH]c3=O)c(=O)n2Cc2cc(F)c(F)c(F)c2)cc1 [Compound I-0307] | < 1000 | 100 to 1000 |  | 440
COc1ccc(Nc2nc(=O)n(Cc3cc(Br)c[nH]c3=O)c(=O)n2Cc2cc(F)c(F)c(F)c2)cc1 [Compound I-0310] | 1000 to 10000 | < 100 |  | 
COc1ccc(Nc2nc(=O)n(Cc3ccc[nH]c3=O)c(=O)n2Cc2cc(F)cc(Cl)c2)cc1 [Compound I-0316] | 1000 to 10000 | < 100 |  | 
COc1ccc(Nc2nc(=O)n(Cc3cc(-c4ccccc4)c[nH]c3=O)c(=O)n2Cc2cc(F)c(F)c(F)c2)cc1 [Compound I-0318] | 1000 to 10000 | 100 to 1000 | 1360 | 110
COc1ccc(Nc2nc(=O)n(Cc3ccc[nH]c3=O)c(=O)n2Cc2cc(F)c(F)cc2F)cc1 [Compound I-0320] | 1000 to 10000 | < 100 |  | 
COc1ccc(Nc2nc(=O)n(Cc3ccc[nH]c3=O)c(=O)n2Cc2ccc(Cl)s2)cc1 [Compound I-0321] | < 1000 | 1000 to 10000 |  | 2100
O=c1[nH]cccc1Cn1c(=O)nc(-c2ccccc2)n(Cc2cc(F)c(F)c(F)c2)c1=O [Compound I-0329] |  |  | 5100 | 2000
O=c1[nH]cccc1Cn1c(=O)nc(Nc2ccc(O)cc2Cl)n(Cc2cc(F)c(F)c(F)c2)c1=O [Compound I-0330] | 1000 to 10000 | < 100 |  | 
COc1ccc(Nc2nc(=O)n(Cc3ccc[nH]c3=O)c(=O)n2Cc2ccc(F)c(C#N)c2)c(Cl)c1 [Compound I-0331] | 1000 to 10000 | < 100 |  | 
COc1ccc(Nc2nc(=O)n(Cc3ccc[nH]c3=O)c(=O)n2Cc2ccc(F)c(C#N)c2)c(F)c1 [Compound I-0332] | 1000 to 10000 | < 100 |  | 
COc1ccc(Nc2nc(=O)n(Cc3ncn(C)n3)c(=O)n2Cc2cc(F)c(F)c(F)c2)cc1 [Compound I-0335] | 1000 to 10000 | 100 to 1000 |  | 
COc1ccc(Nc2nc(=O)n(Cc3ncc(C)s3)c(=O)n2Cc2cc(F)c(F)c(F)c2)cc1 [Compound I-0339] | 1000 to 10000 | 100 to 1000 | 8000 | 610
COc1ccc(Nc2nc(=O)n(-c3cncc4ccncc34)c(=O)n2Cc2cc(F)c(F)c(F)c2)cc1 [Compound I-0344] | < 1000 | < 100 |  | 
